In PMC2990756, “Quantitative High-Throughput Screening Identifies 8-Hydroxyquinolines as Cell-Active Histone Demethylase Inhibitors” (PLoS ONE, 2010):
Read-outs that look alike come from different tables or passages of the source.

Legend:
Assay type in all cases: biochemical; call rule not given here
[1] = biological target: T1, formaldehyde dehydrogenase (FDH) (Pseudomonas putida, UniProt P46154); test: FDH coupling enzyme counterscreen
T1 construct: purchased Sigma-Aldrich
Description: Dimethylsulfoxide certified ACS grade (DMSO) was from Fisher, Inc. HEPES buffer was obtained from Gibco. […] Black solid-bottom 1,536-well assay plates were from Greiner Bio-One (Monroe, NC).

JMJD2E (KDM4E) = biological target: T2, JMJD2E (KDM4E) (Homo sapiens, UniProt B2RXH2); test: qHTS fluorescence FDH-coupled JMJD2E demethylase assay
T2 construct: The catalytic domain of human JMJD2E (residues 1–337); His6 (N); made in house; host or cells: E. coli
T2 sequence (B2RXH2 1-337): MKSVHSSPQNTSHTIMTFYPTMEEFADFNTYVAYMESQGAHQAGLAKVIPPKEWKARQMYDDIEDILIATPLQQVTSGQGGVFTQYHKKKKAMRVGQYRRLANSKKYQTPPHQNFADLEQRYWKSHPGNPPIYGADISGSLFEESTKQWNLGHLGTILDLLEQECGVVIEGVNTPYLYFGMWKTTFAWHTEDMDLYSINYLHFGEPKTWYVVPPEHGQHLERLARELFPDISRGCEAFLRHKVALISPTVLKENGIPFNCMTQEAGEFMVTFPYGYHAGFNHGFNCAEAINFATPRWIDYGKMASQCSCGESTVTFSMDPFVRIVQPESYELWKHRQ
Description: The oxidation of formaldehyde is coupled to the reduction of NAD^+ to NADH, which is monitored by fluorescence spectroscopy. […] To this end, initial screening hits were filtered by a combination of cheminformatics (to exclude low-confidence inhibitors and autofluorescent false positives), counterscreening against the coupled-assay component formaldehyde dehydrogenase (FDH), and orthogonal direct detection of inhibition of demethylation by mass spectrometry ( Figure 1 ).
Reactions were initiated with 1 µL addition of peptide substrate solution containing final concentrations of 10 µM FAS, 50 µM 2OG, 0.25 U/mL FDH, 0.25 mM NAD^+, and 50 µM peptide substrate (ARK(me3)STGGK). A ViewLux imager (PerkinElmer, Waltham, MA) was used to measure NADH fluorescence (λex 340 nm, λem 450 nm) immediately after substrate addition and following 30 min incubation at room temperature. To record any systematic drifts in assay behavior (signal window and noise), assay plates containing no library compounds but only DMSO as a vehicle control were tested periodically (every ∼60 plates) throughout the screen.
Data were normalized to the basal response (0% activity) in the absence of enzyme and the maximal response (100% activity) in the absence of compound. Using the Hill equation, dose-response curves and IC50 values were automatically generated for each compound tested with software developed internally (www.ncgc.nih.gov/pub/openhts/curvefit/). […] The initial well fluorescence (first kinetic read) associated with each sample was stored in a database and used in the cheminformatics analysis to identify autofluorescent compounds interfering with the assay signal.

JMJD2E = biological target: T3, JMJD2E (Homo sapiens, UniProt B2RXH2); test: JMJD2E FDH-coupled assay under low and high iron conditions (iron chelation profile); design: The catalytic domain of human JMJD2E (residues 1–337); His6 (N); made in house; host or cells: E. coli; details: 25 and 2.5 µM Fe(II)
T3 sequence (B2RXH2 1-337): T2 sequence (B2RXH2 1-337)
Protocol: The prioritized compounds were also evaluated in the screening assay using two different ferrous ion concentrations (termed high iron and low iron, respectively), in order to assess their propensity for iron chelation.
The ratio of IC50 values under high iron to low iron was calculated for each compound.

[2] = Table S1, FDH counterscreen, unit not in table, from Figure 2, read-out: qHTS Data: jmjd2e fdh IC50
[3] = Figure 3, substituted 8-hydroxyquinolines against JMJD2E, read-out: IC50 /μM (qHTS IC50, FDH-coupled assay)

T1 sequence (P46154 whole entry): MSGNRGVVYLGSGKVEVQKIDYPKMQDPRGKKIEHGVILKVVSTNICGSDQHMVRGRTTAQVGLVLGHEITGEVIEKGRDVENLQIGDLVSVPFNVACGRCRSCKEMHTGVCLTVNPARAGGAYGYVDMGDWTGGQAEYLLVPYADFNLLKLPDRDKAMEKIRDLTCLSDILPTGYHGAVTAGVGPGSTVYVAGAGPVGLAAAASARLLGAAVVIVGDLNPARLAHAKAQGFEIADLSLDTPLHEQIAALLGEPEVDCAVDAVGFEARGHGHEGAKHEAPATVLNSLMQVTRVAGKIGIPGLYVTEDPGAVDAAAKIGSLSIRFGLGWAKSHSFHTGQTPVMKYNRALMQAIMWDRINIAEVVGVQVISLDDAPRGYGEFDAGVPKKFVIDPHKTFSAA

Compound	qHTS Data: jmjd2e fdh CurveClass ([1]; Table S1, FDH counterscreen)	further results
O=C(CN1CCCCCC1)NCC1CCCO1.O=C(O)C(=O)O (stereo not shown) [compound 24790169]	Inactive	–
COC(=O)CCC(=O)OC1(C)C(=O)C=C2C=C(C3CC3)N(CCc3ccccn3)C=C2C1=O (stereo not shown) [compound 26725368]	Inactive	–
COc1cc(CNCCN2CCOCC2)ccc1OCc1c(Cl)cccc1Cl.Cl [compound 17505294]	Inactive	–
COc1cccc(CN2CCN(C(=O)c3ccc(-c4ccccc4)cc3)CC2)c1OC.O=C(O)C(=O)O [compound 24807835]	Inactive	–
O=C(CN1CCN(c2ncccn2)CC1)N1CCCC1.O=C(O)C(=O)O [compound 24790164]	Inactive	–
C/C(Cn1nnc([N+](=O)[O-])n1)=N\NC(=O)c1ccc(O)cc1O [compound 22414653]	Inactive	–
CN(C)CCCNCC(=O)Nc1ccc(Cl)cc1C(=O)c1ccccc1.O=C(O)C(=O)O [compound 24839839]	Inactive	–
CCOc1ccc2ccccc2c1/C=N/NC(=O)CNC(=O)C(c1ccccc1)c1ccccc1 [compound 17512004]	–	IC50 [1, 2]: 10 µM
FC(F)(F)c1ccccc1CN1CCN(C2CCCCCC2)CC1.O=C(O)C(=O)O [compound 22403162]	Inactive	–
COc1ccc(Cl)cc1CSc1ncn[nH]1 [compound 26662682]	–	IC50 [1, 2]: 0.32 µM
Oc1ccc(COCc2ccccc2)c2cccnc12 [compound 848472]	–	IC50 (JMJD2E (KDM4E); [3]): 36 µM
Oc1c(CN2CCCC2)cc(COCc2ccccc2)c2cccnc12 [compound 85736312]	–	IC50 (JMJD2E (KDM4E); [3]): 5 µM
OCc1ccnc2c(O)cccc12 [compound 857270]	–	IC50 (JMJD2E (KDM4E); [3]): 8.9 µM
Cc1ccc2ccc(C(Nc3ccccn3)c3ccccc3)c(O)c2n1 (stereo not shown) [compound 14737227]	–	IC50 (JMJD2E (KDM4E); Table S1, unit not in table, from Figure 2, read-out: qHTS Data: jmjd2e IC50): 39.8 µM
Oc1cccc2ccc(/C=C/c3cccs3)nc12 [compound 14734630]	–	IC50 (JMJD2E (KDM4E); [3]): > 39 µM
O=c1cc(O)c2sc(Nc3ccc(F)cc3)nc2[nH]1 [compound 17505973]	Inactive	–
CC1(OC(=O)CCc2ccccc2)C(=O)C=C2C=C(c3ccc(C#N)cc3)N(C3CC3)C=C2C1=O (stereo not shown) [compound 26725552]	Inactive	–
CCNc1nc(C(=O)O)nc(N2CCOCC2)n1 [compound 24789924]	Inactive	–
CC1(OC(=O)CCc2ccccc2)C(=O)C=C2C=C(c3ccc(C#N)cc3)N(C3CC3)C=C2C1=O (stereo not shown) [SID 26725552]	–	IC50 ([1]; Figure 2, 0.025 U/mL FDH, 10 µM formaldehyde, read-out: IC50 values in μM, FDH): > 57 µM
CC(CCc1ccccc1)NC(=O)CN1CCN(c2ccc(O)cc2)CC1 (stereo not shown) [compound 24833440]	Inactive	–
O=C(O)C(=O)O.O=C(c1ccccc1)N1CCN(CC2CC=CCC2)CC1 (stereo not shown) [compound 844960]	Inconclusive	IC50 [1, 2]: 5.01 µM
CCC(=O)c1ccccc1OCCN1CCN(Cc2ccccc2)CC1.O=C(O)C(=O)O [compound 24782649]	Inactive	–
O=C(CC1Sc2ncnn2C1=O)Nc1ccccc1 (stereo not shown) [compound 14735867]	–	IC50 [1, 2]: 0.28 µM
O=C(O)C(=O)O.c1cc(CN2CCN(C3CCCCCC3)CC2)ccn1 [compound 24817627]	Inactive	–
O=C(Nc1ccccc1C(F)(F)F)c1ncn[nH]1 [compound 24822488]	Poor quality curve	IC50 [1, 2]: 22.4 µM
O=C(CN1CCN(Cc2ccccc2)CC1)NC(c1ccccc1)c1ccccc1.O=C(O)C(=O)O [compound 24822653]	Inactive	–
Cc1noc(C)c1C(=O)NNc1ccc(C(C)C)cc1 [compound 26728365]	Inactive	–

Compound	qHTS Data: jmjd2e fdh CurveClass ([1]; Table S1, FDH counterscreen)	further results
Cc1cccc(N2C(=O)CC(Sc3ncn[nH]3)C2=O)c1 (stereo not shown) [compound 24809940]	–	IC50 [1, 2]: 0.28 µM
Cc1cccc(NCc2ccc(O)c3ncccc23)c1 [compound 24790252]	Inactive	–
COc1ccccc1NC(=O)c1sc2ncn(Cc3ccccc3C)c(=O)c2c1C [SID 17408386]	–	IC50 (JMJD2E (KDM4E); Figure 2, 100 nM JMJD2E, 10 µM FAS, read-out: IC50 values in μM, qHTS): 4.5 µM
O=C(O)C(=O)O.S=C(NCC1CCCO1)N1CCN(Cc2ccccc2)CC1 (stereo not shown) [compound 24807070]	Inactive	–
CN(C)c1cc(N/N=C/c2ccc(Cl)cc2)nc(N(C)C)n1 [compound 24813304]	Poor quality curve	IC50 [1, 2]: 14.1 µM
Cc1ccc(NC2=CC(=O)CC(C)(C)C2)c(N)c1 [compound 849268]	Inactive	–
Fc1ccc(/C=C2\CCCC3=C2Nc2ncnn2C3c2ccc(F)cc2)cc1 (stereo not shown) [compound 14745056]	–	IC50 [1, 2]: 10 µM
CC1CCN(CC(=O)NCCc2ccc(F)cc2)CC1.O=C(O)C(=O)O [compound 24804760]	Poor quality curve	–
Oc1cccc2ccc(/C=C/c3c(F)cccc3Cl)nc12 [compound 24793399]	–	IC50 (JMJD2E (KDM4E); [3]): 28 µM
Cc1nc(NC(=O)c2oc3ccccc3c2C)sc1C(=O)N(C)C [compound 4262050]	Poor quality curve	–
CC1(OC(=O)C2CCCC2)C(=O)C=C2C=C(c3ccsc3)N(CCc3ccccn3)C=C2C1=O (stereo not shown) [compound 26725362]	Inactive	–
S=c1nc(C2COc3ccccc3O2)[nH][nH]1 (stereo not shown) [compound 24801312]	-1.3	IC50 [1, 2]: 15.8 µM
Cc1ccc(SCCCCN2CCNCC2)cc1.O=C(O)C(=O)O [compound 17504558]	Inactive	–
CCCCn1c(=O)[nH]c2nc3cc(NC(C)=O)ccc3nc2c1=O [compound 26671554]	–	IC50 [1, 2]: 11.2 µM
Oc1ccc(CNc2cccc(C(F)(F)F)c2)c2cccnc12 [compound 50122416]	–	IC50 (JMJD2E (KDM4E); [3]): 7.9 µM
O=C(Cc1ccccc1)N1CCN(Cc2ccccn2)CC1 [SID 4263376]	–	IC50 ([1]; IC50 values in μM, FDH, Figure 2, 0.025 U/mL FDH, 10 µM formaldehyde): > 57 µM
COc1cc(C2C3=C(CCCC3=O)Nc3c2c(C)nn3-c2cccc(C)c2)cc(OC)c1O (stereo not shown) [compound 26724424]	Inactive	–
O=C(O)CN(CCN(CC(=O)O)CC(=O)O)CC(=O)O [EDTA, reference compound]	–	ratio of IC50 values under high iron to low iron (JMJD2E): 5.9
CC(C)NC[C@H](O)c1ccc(O)c(O)c1 [compound 11112573]	Inactive	–
Cc1cc(N(C)/N=C/c2ccccc2)nc(-c2ccccc2O)n1 [compound 24801833]	–	IC50 [1, 2]: 39.8 µM
COCCN1C=C2C(=O)C(C)(OC(=O)CCc3ccccc3)C(=O)C=C2C=C1c1ccc(C#N)cc1 (stereo not shown) [compound 26725518]	Poor quality curve	–
O=C(O)c1ccnc2c(O)cccc12 [SID 85736397, 4-carboxy-8-hydroxyquinoline]	–	IC50 (JMJD2E (KDM4E); FDH coupled assay, read-out: IC50 against JMJD2E): 2 µM; IC50 (JMJD2E (KDM4E); [3]): 2.0 µM
O=C(Cc1ccccc1)N1CCN(Cc2ccccn2)CC1 [compound 4263376]	Inactive	–
Clc1ccc(SCCN2CCNCC2)cc1.O=C(O)C(=O)O [compound 24783981]	Inactive	–
CC1=C(C(N)=O)C(c2ccc3c(c2)OCO3)n2nc(-c3cccc(C)c3)nc2N1 (stereo not shown) [compound 4245376]	Inactive	–
O=C(NNC(=O)c1ccc(O)cc1O)c1ccc(Cl)cc1 [compound 17414133]	Inactive	–
